Measured values as given in BigSolDB 2.1.

CC(=O)Nc1ccc(O)cc1
solubility (mole fraction)
Details	293.15 K	298.15 K	303.15 K	308.15 K	313.15 K
in ethanol	0.0505	0.0546	0.062	0.067	0.0705
in propylene glycol	0.0483	0.0516	0.0603	0.0664	0.0752
